Among the test systems are LXFL 529 NSCLC; IGROV1 ovarian; HCC-2998 colon; LOX IMVI melanoma; DLD-1 colon; M19-MEL melanoma; SNB-78 CNS; DMS 114 small cell lung; SF-539 CNS; NCI-H460 lung; KM20L2 colon; DMS 273 small cell lung; HCT-116 colon; RXF-631 renal; CAKI-1 renal; HOP-18 NSCLC; XF 498 CNS; HS 578T breast; BT-549 breast.
Holding throughout (assay): NCI tumour cell line growth inhibition, 48 h

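In this assay, cells in 96-well plates receive the compound at five concentrations for 48 hours. Endpoints are linearly interpolated between the surrounding concentrations. GI50 is the concentration that inhibits growth by half. The concentration for full growth arrest is given as TGI.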

As for `O=C1CC2CC=C[C@H]3c4cc5c(cc4C(=O)N1C23)OCO5` (some centres undefined), the TGI in the assay on LXFL 529 NSCLC, in the assay with IGROV1 ovarian, with HCC-2998 colon, in the assay with LOX IMVI melanoma, in the assay on DLD-1 colon and with M19-MEL melanoma was more than 50 µM in each case. In addition, the TGI in the assay on SNB-78 CNS, in the assay with DMS 114 small cell lung, with SF-539 CNS, with NCI-H460 lung, with KM20L2 colon and with DMS 273 small cell lung was more than 50 µM in each case. This molecule gave a TGI in the assay on HCT-116 colon of more than 50 µM.
For the molecule `O=C(O)C(CS)NCc1c2ccccc2[n+]([O-])c2ccccc12` (centres undefined), the TGI is 84.3 µM in the assay on LXFL 529 NSCLC; more than 100 µM in the assay with IGROV1 ovarian; more than 100 µM in the assay on HCC-2998 colon; more than 100 µM with LOX IMVI melanoma; more than 100 µM in the assay on DLD-1 colon; more than 100 µM in the assay with M19-MEL melanoma. Moreover, the TGI with SNB-78 CNS is more than 100 µM; in the assay with RXF-631 renal it was more than 100 µM; in the assay with DMS 114 small cell lung, 68.6 µM; in the assay with NCI-H460 lung, more than 100 µM; with CAKI-1 renal, more than 100 µM; with KM20L2 colon, more than 100 µM. Moreover, the TGI with HOP-18 NSCLC is more than 100 µM; with DMS 273 small cell lung, more than 100 µM; in the assay on HCT-116 colon, 62.4 µM.
With `O=C(Cc1ccccc1)NN1C(=O)C(Cl)C1c1cccc(O)c1` (centres undefined), the TGI with LXFL 529 NSCLC came to 22.8 µM; in the assay with XF 498 CNS, 35.4 µM; in the assay with IGROV1 ovarian, 34.8 µM; with HCC-2998 colon it was 36.8 µM; in the assay on LOX IMVI melanoma it was 27.9 µM; in the assay with DLD-1 colon, 31.1 µM. The TGI was 35.8 µM in the assay on M19-MEL melanoma; 73.6 µM in the assay with SNB-78 CNS; 29.4 µM with DMS 114 small cell lung; 36.4 µM with NCI-H460 lung; 34.8 µM in the assay with CAKI-1 renal; 32.2 µM with KM20L2 colon. For the same molecule, the TGI in the assay on HOP-18 NSCLC worked out at 36.5 µM; in the assay with DMS 273 small cell lung it was 37.9 µM; in the assay on HCT-116 colon it was 28.9 µM.
Consider `COc1cc(C2C(Cl)C(=O)N2n2cnc3ccccc3c2=O)cc(OC)c1OC` (centres undefined), for which the TGI in the assay with LXFL 529 NSCLC, in the assay on XF 498 CNS, with IGROV1 ovarian, in the assay on HCC-2998 colon, in the assay with LOX IMVI melanoma and with DLD-1 colon was more than 100 µM in each case. In addition, the TGI in the assay on M19-MEL melanoma, in the assay with SNB-78 CNS, with DMS 114 small cell lung, with NCI-H460 lung, with CAKI-1 renal and in the assay on KM20L2 colon was more than 100 µM throughout. Also, the TGI with HOP-18 NSCLC, in the assay on DMS 273 small cell lung and in the assay with HCT-116 colon was more than 100 µM each time.
Turning to `O=C1C=C(N2CCCC2)C=C(N2CCCC2)C1`, the TGI in the assay on LXFL 529 NSCLC, in the assay with XF 498 CNS, with IGROV1 ovarian, in the assay with HCC-2998 colon, in the assay on LOX IMVI melanoma and in the assay on DLD-1 colon was more than 100 µM each time. For the same molecule, the TGI is 91.2 µM in the assay on M19-MEL melanoma; more than 100 µM in the assay with SNB-78 CNS; more than 100 µM in the assay on DMS 114 small cell lung; more than 100 µM in the assay with NCI-H460 lung; more than 100 µM in the assay with CAKI-1 renal; more than 100 µM in the assay with KM20L2 colon. Moreover, the TGI in the assay on HOP-18 NSCLC, in the assay with DMS 273 small cell lung and in the assay on HCT-116 colon was more than 100 µM in each case.
Regarding `CCC1(OC(=O)CN2CCN(CCO)CC2)C(=O)OCc2c1cc1n(c2=O)Cc2cc3ccccc3nc2-1` (centres undefined), the TGI with LXFL 529 NSCLC was 21.4 µM; with HS 578T breast it was more than 85.8 µM; with XF 498 CNS, 14.2 µM; with IGROV1 ovarian, 17.4 µM; in the assay with HCC-2998 colon, 6.29 µM; with LOX IMVI melanoma, 1.58 µM. In addition, the TGI is more than 100 µM in the assay on DLD-1 colon; 6.99 µM with M19-MEL melanoma; more than 100 µM with SNB-78 CNS; 20.4 µM with BT-549 breast; 16.8 µM with DMS 114 small cell lung; 1.73 µM in the assay on SF-539 CNS. Further, the TGI in the assay with NCI-H460 lung amounted to 0.971 µM; in the assay on KM20L2 colon, 7.46 µM; with HOP-18 NSCLC, 25.8 µM; in the assay on DMS 273 small cell lung it was 0.367 µM; in the assay with HCT-116 colon, 3.35 µM.
As to `FC(F)(F)P1C2C=CC(CC2)C1(F)F` (centres undefined), the TGI in the assay with LXFL 529 NSCLC, in the assay with XF 498 CNS, in the assay on IGROV1 ovarian, with HCC-2998 colon, in the assay on LOX IMVI melanoma and in the assay on DLD-1 colon was more than 100 µM throughout. The TGI in the assay on M19-MEL melanoma, in the assay with SNB-78 CNS, in the assay on DMS 114 small cell lung, with SF-539 CNS, in the assay with NCI-H460 lung and in the assay on CAKI-1 renal was more than 100 µM in each case. The TGI in the assay with KM20L2 colon, in the assay with HOP-18 NSCLC, in the assay with DMS 273 small cell lung and in the assay on HCT-116 colon was more than 100 µM throughout.
In the case of `Cc1c(C(=O)CSc2nc3ccc([N+](=O)[O-])cc3[nH]2)c(=O)n(-c2ccccc2)n1C`, the TGI with LXFL 529 NSCLC, in the assay on XF 498 CNS, with IGROV1 ovarian, with HCC-2998 colon, in the assay with LOX IMVI melanoma and in the assay on DLD-1 colon was more than 100 µM in each case. Further, the TGI in the assay with M19-MEL melanoma, with DMS 114 small cell lung, in the assay with SF-539 CNS, in the assay with NCI-H460 lung, in the assay with CAKI-1 renal and in the assay with DMS 273 small cell lung was more than 100 µM in each case. Besides, the TGI with HCT-116 colon was more than 100 µM.
Take `COc1cc(N(CCC#N)CCC#N)ccc1/C(N=Nc1ccc(C)cc1)=N/NC(=O)c1cc(Br)ccc1O`: the TGI in the assay on HS 578T breast was more than 100 µM; with IGROV1 ovarian it was 21.9 µM; with HCC-2998 colon it was 50.1 µM; in the assay on LOX IMVI melanoma, 59 µM; in the assay on BT-549 breast, 62.6 µM; with SF-539 CNS, more than 100 µM. For the same molecule, the TGI in the assay on NCI-H460 lung was 54.4 µM; with CAKI-1 renal, 66.6 µM; in the assay on HCT-116 colon, 41.2 µM.
As for `O=C1Nc2cccc3ncn(c23)C2=C1CCCC2`, the TGI with LXFL 529 NSCLC, in the assay with IGROV1 ovarian, with HCC-2998 colon, with LOX IMVI melanoma, in the assay with DLD-1 colon and in the assay on M19-MEL melanoma was more than 100 µM throughout. The TGI in the assay on SNB-78 CNS was more than 100 µM; in the assay with DMS 114 small cell lung, more than 100 µM; in the assay with SF-539 CNS, more than 100 µM; in the assay with NCI-H460 lung, more than 100 µM; in the assay on KM20L2 colon it was more than 100 µM; with HOP-18 NSCLC, 83.8 µM. Besides, the TGI in the assay with DMS 273 small cell lung and in the assay on HCT-116 colon was more than 100 µM in each case.
For the molecule `Cc1cc2nc(N3C(=O)/C(=C/c4cccc([N+](=O)[O-])c4)N=C3c3ccccc3)sc2cc1C`, the TGI in the assay with HS 578T breast was more than 100 µM; in the assay on IGROV1 ovarian, more than 100 µM; with HCC-2998 colon, 53.7 µM; in the assay with LOX IMVI melanoma, 55.8 µM; in the assay on BT-549 breast, more than 100 µM; with SF-539 CNS, more than 100 µM. The TGI with NCI-H460 lung, with CAKI-1 renal and with HCT-116 colon was more than 100 µM throughout.
For `CC(NC1=CC(=O)c2ncccc2C1=O)C(O)c1ccccc1` (centres undefined), the TGI in the assay on HS 578T breast is 25.1 µM; in the assay with IGROV1 ovarian, 16.4 µM; in the assay with HCC-2998 colon, 23.2 µM; in the assay with LOX IMVI melanoma, 13.3 µM; in the assay on BT-549 breast, 7.25 µM; in the assay on SF-539 CNS, 19.7 µM. In addition, the TGI with NCI-H460 lung was 3.22 µM; with CAKI-1 renal, 16.2 µM; in the assay on HCT-116 colon, 15.2 µM.
In the case of `O=c1[nH]c2cc(C(F)(F)F)ccc2nc1Cc1ccccc1`, the TGI in the assay with HS 578T breast, in the assay on IGROV1 ovarian, with HCC-2998 colon, in the assay on LOX IMVI melanoma, with BT-549 breast and with SF-539 CNS was more than 100 µM in each case. Also, the TGI with NCI-H460 lung, in the assay with CAKI-1 renal and in the assay on HCT-116 colon was more than 100 µM in each case.
Take `CC(=O)O[C@H]1C(=O)[C@@]2(C)C([C@H](OC(=O)c3ccccc3)[C@]3(O)C[C@H](OC(=O)[C@H](O)[C@H](NC(=O)c4ccccc4)c4ccc(Cl)cc4)C(C)=C1C3(C)C)C1(OC(C)=O)CO[C@@H]1C[C@@H]2O` (some centres undefined): the TGI with LXFL 529 NSCLC was 26 µM; in the assay on HCC-2998 colon it was 0.0105 µM; with LOX IMVI melanoma it was 55.9 µM; in the assay on RXF-631 renal it was more than 100 µM; in the assay with DMS 114 small cell lung, 0.000649 µM; with SF-539 CNS, 0.0026 µM. The TGI in the assay with CAKI-1 renal turned out to be 23.9 µM. The GI50 in the assay with XF 498 CNS is 18.2 nM.
With `C[C@H](CCC1=NCCN1)[C@H]1CC[C@H]2[C@@H]3[C@H](O)C[C@@H]4C[C@H](O)CC[C@]4(C)[C@H]3CC[C@]12C`, the TGI in the assay on HS 578T breast was determined as 28.5 µM; in the assay with IGROV1 ovarian, 23.9 µM; with HCC-2998 colon, 28.5 µM; in the assay on LOX IMVI melanoma, 22.8 µM; with BT-549 breast, 24.7 µM; in the assay on SF-539 CNS, 25.5 µM. The TGI in the assay on NCI-H460 lung is 24.3 µM; in the assay on CAKI-1 renal, 40.9 µM; in the assay with HCT-116 colon, 26.4 µM.
`CCOC(=O)N1CCN(Cc2cc(=O)n3cc(C)ccc3n2)CC1`: the TGI with HS 578T breast, with IGROV1 ovarian, in the assay with HCC-2998 colon, in the assay with LOX IMVI melanoma, in the assay on BT-549 breast and with SF-539 CNS was more than 100 µM in each case. Further, the TGI in the assay on NCI-H460 lung, with CAKI-1 renal and in the assay with HCT-116 colon was more than 100 µM each time.
`CC[C@@H]1CN2CCC1C[C@@H]2C(O)c1ccnc2ccc(OCCN3CCN(CCOc4ccc5nccc(C(O)[C@@H]6C[C@@H]7CCN6C[C@@H]7CC)c5c4)CC3)cc12` (some centres undefined): the TGI is 46.6 µM in the assay with HS 578T breast; 36.7 µM in the assay with IGROV1 ovarian; 26.2 µM with HCC-2998 colon; 38.5 µM in the assay with LOX IMVI melanoma; 40.9 µM in the assay on BT-549 breast; 36.7 µM in the assay with SF-539 CNS. Also, the TGI in the assay with NCI-H460 lung is 38.4 µM; with CAKI-1 renal, 32.5 µM; in the assay on HCT-116 colon, 28.3 µM.

The values are drawn from PubChem BioAssay (NCI).
